Assay results taken from patent publication US10030026B2, “Difluoroethylpyridine derivatives as NR2B NMDA receptor antagonists” (Rugen Holdings (Cayman) Limited, priority 2014, dated 2018).
“And” between values parts separate entries of the source, which are not always exact repeats. Identical values can stand only once.

Key:
human NR1/NR2A = human NR1/NR2A (Homo sapiens (Human), UniProt Q05586+Q12879); assay: NR2A antagonist activity, Fluo-4 calcium influx assay in HEK293 cells; assay type: cell-based
Sequence of human NR1/NR2A (Q12879 23-1464, other chains not shown): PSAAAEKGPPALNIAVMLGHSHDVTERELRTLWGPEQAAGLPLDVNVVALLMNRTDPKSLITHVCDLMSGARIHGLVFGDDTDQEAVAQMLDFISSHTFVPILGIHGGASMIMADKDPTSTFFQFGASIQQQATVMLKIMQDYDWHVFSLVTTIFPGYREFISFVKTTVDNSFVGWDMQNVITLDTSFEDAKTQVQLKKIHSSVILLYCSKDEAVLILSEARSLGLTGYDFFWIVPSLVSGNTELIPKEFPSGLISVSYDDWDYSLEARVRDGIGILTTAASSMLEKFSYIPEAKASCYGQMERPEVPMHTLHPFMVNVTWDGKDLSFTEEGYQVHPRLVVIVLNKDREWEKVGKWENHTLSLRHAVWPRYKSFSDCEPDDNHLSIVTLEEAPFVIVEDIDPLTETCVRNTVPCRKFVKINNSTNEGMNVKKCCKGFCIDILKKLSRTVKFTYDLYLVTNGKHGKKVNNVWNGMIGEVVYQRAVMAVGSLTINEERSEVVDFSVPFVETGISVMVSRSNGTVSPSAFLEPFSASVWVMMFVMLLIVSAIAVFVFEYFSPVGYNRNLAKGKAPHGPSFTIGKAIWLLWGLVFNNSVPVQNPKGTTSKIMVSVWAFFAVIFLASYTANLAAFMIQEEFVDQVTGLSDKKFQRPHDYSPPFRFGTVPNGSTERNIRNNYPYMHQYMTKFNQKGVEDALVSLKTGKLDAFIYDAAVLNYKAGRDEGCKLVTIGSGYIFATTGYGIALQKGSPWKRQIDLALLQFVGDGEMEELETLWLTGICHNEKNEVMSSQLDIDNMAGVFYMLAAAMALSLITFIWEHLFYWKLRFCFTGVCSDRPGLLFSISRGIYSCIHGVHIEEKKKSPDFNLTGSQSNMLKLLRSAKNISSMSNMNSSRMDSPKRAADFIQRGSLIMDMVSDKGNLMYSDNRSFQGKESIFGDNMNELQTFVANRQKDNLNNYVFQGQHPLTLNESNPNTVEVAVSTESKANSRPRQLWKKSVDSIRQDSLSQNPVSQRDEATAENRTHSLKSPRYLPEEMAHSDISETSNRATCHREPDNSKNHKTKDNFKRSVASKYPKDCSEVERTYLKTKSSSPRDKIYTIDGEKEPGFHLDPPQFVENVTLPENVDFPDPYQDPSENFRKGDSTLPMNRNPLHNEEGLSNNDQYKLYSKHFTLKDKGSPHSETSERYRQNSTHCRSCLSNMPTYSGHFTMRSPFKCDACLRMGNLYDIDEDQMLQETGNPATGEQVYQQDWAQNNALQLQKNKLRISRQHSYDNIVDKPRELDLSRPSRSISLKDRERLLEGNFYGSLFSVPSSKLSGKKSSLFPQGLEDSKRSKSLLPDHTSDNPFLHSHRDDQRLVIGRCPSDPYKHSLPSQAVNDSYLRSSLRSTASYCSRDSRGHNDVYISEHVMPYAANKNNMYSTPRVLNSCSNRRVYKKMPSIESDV
Experimental: (§1) Activation of the NR2A or NR2B subtype of NMDA receptor with glutamate as an agonist and glycine co-agonist on these cells results in calcium influx, which can be monitored with fluorescent indicator Fluo-4.
(§2) For experiments, the cells were seeded onto poly-D-lysine-coated 96-well black plates with clear bottom (Corning) at a density of ˜50,000 cells/well. After overnight culture, the growth medium was removed from the wells and the cells were incubated at 37° C. for 60 min in Hanks buffer containing 4 μM fluo-4-AM (Invitrogen) and 0.1% bovine serum albumin (BSA). After dye-loading, the cells were washed three times with Hanks buffer and incubated for 10 min at room temperature with various concentrations of test compounds prepared in Hanks buffer with 0.1% BSA. The cell plates were placed onto FDSS μCell fluorescence reader (Hamamatsu). After 20 sec reading of background fluorescence, agonist glutamate at final 100 μM and co-agonist glycine at final 50 μM were added to the cells to activate the receptor, and the resulting fluorescence changes were recorded and quantified.

human NR1/NR2B = human NR1/NR2B (Homo sapiens (Human), UniProt Q13224); assay: NR2B antagonist activity, Fluo-4 calcium influx assay in HEK293 cells; assay type: cell-based; conditions: HEK293 cells stably expressing NR2B; glutamate 100 μM, glycine 50 μM
Sequence of human NR1/NR2B (Q13224 27-1484, other chains not shown): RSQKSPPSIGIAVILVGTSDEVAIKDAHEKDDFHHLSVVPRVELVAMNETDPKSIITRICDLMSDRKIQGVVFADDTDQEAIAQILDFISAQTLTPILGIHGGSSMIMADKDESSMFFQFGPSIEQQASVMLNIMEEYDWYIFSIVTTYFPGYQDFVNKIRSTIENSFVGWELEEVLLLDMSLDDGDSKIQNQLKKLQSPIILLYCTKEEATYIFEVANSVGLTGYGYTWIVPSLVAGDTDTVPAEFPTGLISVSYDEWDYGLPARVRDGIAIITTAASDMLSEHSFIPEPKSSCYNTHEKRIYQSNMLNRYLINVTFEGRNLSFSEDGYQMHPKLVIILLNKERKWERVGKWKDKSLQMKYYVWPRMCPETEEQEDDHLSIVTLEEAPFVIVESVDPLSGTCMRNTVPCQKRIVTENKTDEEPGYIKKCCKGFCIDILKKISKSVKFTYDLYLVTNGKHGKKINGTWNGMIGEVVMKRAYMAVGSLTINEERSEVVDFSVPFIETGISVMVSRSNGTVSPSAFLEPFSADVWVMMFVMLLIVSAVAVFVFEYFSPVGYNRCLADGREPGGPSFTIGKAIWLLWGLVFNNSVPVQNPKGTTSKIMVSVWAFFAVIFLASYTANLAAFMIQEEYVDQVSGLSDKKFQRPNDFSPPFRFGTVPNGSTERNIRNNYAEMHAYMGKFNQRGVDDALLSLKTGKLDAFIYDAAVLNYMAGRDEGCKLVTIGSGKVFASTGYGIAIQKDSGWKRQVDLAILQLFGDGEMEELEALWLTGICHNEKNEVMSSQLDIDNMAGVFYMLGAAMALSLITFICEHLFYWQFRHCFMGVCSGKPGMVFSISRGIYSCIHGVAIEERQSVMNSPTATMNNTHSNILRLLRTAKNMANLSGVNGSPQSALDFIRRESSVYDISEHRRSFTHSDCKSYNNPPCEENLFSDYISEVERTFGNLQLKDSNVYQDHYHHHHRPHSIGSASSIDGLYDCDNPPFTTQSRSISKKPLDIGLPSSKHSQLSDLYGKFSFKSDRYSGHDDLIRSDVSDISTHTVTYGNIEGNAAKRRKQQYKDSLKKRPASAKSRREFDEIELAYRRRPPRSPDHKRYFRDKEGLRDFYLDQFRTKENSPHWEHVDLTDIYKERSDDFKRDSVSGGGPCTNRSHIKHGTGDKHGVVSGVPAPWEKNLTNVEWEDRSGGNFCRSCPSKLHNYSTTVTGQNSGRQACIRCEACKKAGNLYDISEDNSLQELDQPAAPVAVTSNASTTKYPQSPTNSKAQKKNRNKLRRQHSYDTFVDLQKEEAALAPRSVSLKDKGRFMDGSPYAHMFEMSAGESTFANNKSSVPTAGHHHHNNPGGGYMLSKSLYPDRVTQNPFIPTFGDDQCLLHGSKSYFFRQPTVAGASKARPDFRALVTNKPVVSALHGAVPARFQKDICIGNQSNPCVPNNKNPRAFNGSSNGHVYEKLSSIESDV
Experimental: as §1, §2

hERG channel = hERG channel (Homo sapiens (Human), UniProt Q12809); assay: hERG channel inhibition, whole cell patch clamp in HEK293 cells; assay type: cell-based; conditions: hERG stably expressed in HEK293 cells
Sequence of hERG channel (Q12809 whole entry): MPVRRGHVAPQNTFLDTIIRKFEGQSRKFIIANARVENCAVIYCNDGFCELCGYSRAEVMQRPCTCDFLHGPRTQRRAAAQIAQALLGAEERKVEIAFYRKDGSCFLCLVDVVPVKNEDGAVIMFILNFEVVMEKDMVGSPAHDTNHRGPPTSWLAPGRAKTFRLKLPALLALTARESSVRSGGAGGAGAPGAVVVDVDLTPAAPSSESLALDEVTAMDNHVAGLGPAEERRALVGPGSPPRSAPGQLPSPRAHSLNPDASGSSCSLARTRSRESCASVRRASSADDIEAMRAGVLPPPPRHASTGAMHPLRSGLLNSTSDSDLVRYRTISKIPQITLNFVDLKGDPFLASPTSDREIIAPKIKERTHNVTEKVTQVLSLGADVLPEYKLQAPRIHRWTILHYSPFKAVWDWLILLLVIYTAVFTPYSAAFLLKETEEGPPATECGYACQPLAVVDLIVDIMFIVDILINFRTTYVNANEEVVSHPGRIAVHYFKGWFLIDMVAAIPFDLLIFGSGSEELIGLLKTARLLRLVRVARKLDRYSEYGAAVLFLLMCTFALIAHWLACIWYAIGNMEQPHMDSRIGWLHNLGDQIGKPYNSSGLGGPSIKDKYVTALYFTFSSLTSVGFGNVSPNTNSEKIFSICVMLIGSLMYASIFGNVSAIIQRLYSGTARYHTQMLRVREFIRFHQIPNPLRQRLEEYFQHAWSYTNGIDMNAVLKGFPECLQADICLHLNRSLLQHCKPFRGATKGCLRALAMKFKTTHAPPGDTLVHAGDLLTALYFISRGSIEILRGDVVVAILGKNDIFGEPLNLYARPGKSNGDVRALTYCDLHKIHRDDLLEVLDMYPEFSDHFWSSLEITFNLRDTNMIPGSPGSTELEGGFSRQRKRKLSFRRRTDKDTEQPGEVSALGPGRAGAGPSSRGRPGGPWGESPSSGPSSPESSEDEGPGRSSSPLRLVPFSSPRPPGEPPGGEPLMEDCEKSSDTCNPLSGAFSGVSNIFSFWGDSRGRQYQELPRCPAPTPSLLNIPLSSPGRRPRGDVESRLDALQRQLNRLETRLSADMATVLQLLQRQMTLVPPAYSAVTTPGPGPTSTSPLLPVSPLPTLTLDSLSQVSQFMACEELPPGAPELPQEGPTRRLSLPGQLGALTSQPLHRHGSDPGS
Experimental: The assay was performed on hERG channel stably expressed in HEK293 cells. The cells were cultured at 37° C. in a humidified CO2 incubator in the growth medium consisting of DMEM, 10% fetal bovine serum and antibiotics. Prior to the assay, the cells were seeded onto a 12 mm PDL-coated glass coverslip and cultured in a 35 mm Petri dish. After 16 to 40 hr culture, the cover slip was transferred into the chamber of OctaFlow perfusion system (ALA Instrument) and under a constant flow of extracellular solution (140 mM NaCl, 4 M KCl, 1 mM MgCl2, 1 mM CaCl2, 10 mM HEPES, 10 mM D-glucose, pH 7.35, osmolarity 290). Whole cell patch clamping was performed with a glass micropipette filled with intracellular solution (120 mM KCl, 1.75 mM MgCl2, 10 mM HEPES, 10 mM EGTA, and 4 mM ATP-K2, PH 7.2, osmolarity 300). Giga-seal was maintained during the test. The voltage control and current measurement were carried out using Axon amplifier 700B, Digidata 1440A and CLAMPEX10 software (Molecular Devices). Whole-cell hERG currents were recorded following the Petroski protocol: the cell was held at −80 mV, and the voltage step jumped from −80 to 30 mV and stay for 2 sec with a 20 ms prepulse at −40 mV. After depolarization, the voltage was decreased to −40 mV and stay for 2 sec, and returned back to −80 mV. Test compound was applied by quartz capillary tubes tip (200 μm inner diameter), and the flow rate was controlled at 2-3 ml/min with OctaFlow perfusion system. Different concentrations of the compound were applied to the cells for 5 min and the hERG current was measured three times before, during and after compound treatment. The data were analyzed using Clampfit 10 software (Molecular Devices).

Male mice (strain NLMN) = assay: Forced swim test; assay type: in vivo
Experimental: Mice that are forced to swim in a situation from which they cannot escape, rapidly become immobile. Drugs with antidepressant activity, such as imipramine, reduce the amount of time spent in the immobile state. […] All animals were housed in a temperature (22-24° C.) and humidity (50-60%) controlled environment with free access to food and water on a 12-hour light-dark cycle. Test compounds were dissolved in 0.5% dimethylsulfoxide, 4% hydroxypropyl-b-cyclodextrin water to generate the appropriate dosing solution. Drugs were administered by intraperitoneal injection at a dose volume of 10 mL/kg. Testing was initiated 20-60 minutes after dosing. […] Mice were placed in a white plastic cylinder 20 cm high with a diameter of 21 cm containing 10 cm of water at 25±2° C. The mice were videotaped for 6 minutes, and the last 4 minutes of video were analyzed by a blinded observer off-line. The observer judged the animal to be immobile when it ceased all activity (struggling, swimming, jumping etc.) and floated passively atop the water. The amount of time each animal spent in the immobile state was recorded and used for statistical analysis of compound effect. Group differences were evaluated by student's t-test or one-way ANOVA followed by post-hoc Dunnett's test.

CYP2D6 = CYP2D6 (Homo sapiens (Human), UniProt P10635); assay: CYP P450 enzyme inhibition in pooled human liver microsome
Sequence of CYP2D6 (P10635 whole entry): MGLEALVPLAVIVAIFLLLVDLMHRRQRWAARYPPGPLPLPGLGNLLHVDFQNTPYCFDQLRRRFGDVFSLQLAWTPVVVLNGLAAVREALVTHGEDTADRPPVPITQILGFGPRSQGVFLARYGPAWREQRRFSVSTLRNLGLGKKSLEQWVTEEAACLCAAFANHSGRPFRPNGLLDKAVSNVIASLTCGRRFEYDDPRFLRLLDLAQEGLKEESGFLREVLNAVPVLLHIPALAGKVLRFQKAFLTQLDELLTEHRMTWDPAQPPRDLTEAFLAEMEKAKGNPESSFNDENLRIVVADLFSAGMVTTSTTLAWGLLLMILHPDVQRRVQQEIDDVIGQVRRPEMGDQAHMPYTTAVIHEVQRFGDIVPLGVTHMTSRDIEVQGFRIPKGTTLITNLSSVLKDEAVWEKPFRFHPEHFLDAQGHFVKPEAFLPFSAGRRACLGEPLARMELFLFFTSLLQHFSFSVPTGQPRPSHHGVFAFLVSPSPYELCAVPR
Experimental: Those CYP isoforms and their corresponding probe substrates are as follows: CYP1A2 (phenacetin, 30 μM), CYP2C9 (tolutamide, 100 μM), CYP2C19 (S-mephenytoin, 40 μM), CYP2D6 (dextromethorphan, 5 μM) and CYP3A4 (midazolam, 1 μM). All probe substrates were used at concentrations near or below their Kms. For experiment, a reaction mixture of test compound at 10 uM or in serial dilution, CYP probe substrate described above and 0.2 mg/mL pooled HLM in phosphate buffer, pH 7.4 in a final volume of 200 μL was pre-incubated at 37° C. for 10 minutes in triplicate. The reaction was initiated by addition of NADPH at final concentration of 1 mM. […] The samples were then centrifuged at 13,000 rpm and the supernatants were injected to LC-MS/MS (Agilent Technologies) to quantify the concentration of the specific metabolites of the probe substrates formed by individual CYP450 isoforms. The inhibition ratio is calculated as: (Mt−M0)/Mwater×100% • in which Mt and M0 represent the concentrations of the specific probe substrate metabolite, which was formed by individual CYP450 isoform, at the beginning and end of the reaction in the presence of test compound; while Mwater represents the concentration of the specific metabolite at the end of the reaction in the absence of test compound. […]

For `FC(F)(CN1CCC(Nc2ncnc3[nH]ncc23)CC1)c1ccccn1` [C-1, N-(1-(2,2-difluoro-2-(pyridin-2-yl)ethyl)piperidin-4-yl)-1H-pyrazolo[3,4-d]pyrimidin-4-amine], the IC50 (human NR1/NR2A) was > 10000 nM and the IC50 (human NR1/NR2B) was 178 nM.

In the case of `FC(F)(CN1CCC(Nc2ncnc3[nH]ncc23)CC1)c1ccc(Cl)cn1` [C-3], the IC50 (human NR1/NR2A) is reported as > 10000 nM and the IC50 (human NR1/NR2B) is reported as 26 nM.

`Cc1ccc(C(F)(F)CN2CCC(Nc3ncnc4[nH]ncc34)CC2)nc1` [C-4, N-(1-(2,2-difluoro-2-(5-methylpyridin-2-yl)ethyl)piperidin-4-yl)-1H-pyrazolo[3,4-d]pyrimidin-4-amine] was tested, and the IC50 (human NR1/NR2A) was > 10000 nM and the IC50 (human NR1/NR2B) was 52 nM.

Compound `FC(F)(F)c1ccc(C(F)(F)CN2CCC(Nc3ncnc4[nH]ncc34)CC2)nc1` [C-5, N-(1-(2,2-difluoro-2-(5-(trifluoromethyl)pyridin-2-yl)ethyl)piperidin-4-yl)-1H-pyrazolo[3,4-d]pyrimidin-4-amine] has an IC50 (hERG channel) of 31000 nM, an immobility time (Male mice (strain NLMN); 3 mg/kg IP, vehicle group 188±6.6, p<0.05) of 111 ± 18.3 s and an immobility time (Male mice (strain NLMN); 10 mg/kg IP, vehicle group 188±6.6, p<0.01) of 89 ± 14.4 s. For the same compound, the IC50 (human NR1/NR2A) was > 10000 nM.

With `FC(F)c1ccc(C(F)(F)CN2CCC(Nc3ncnc4[nH]ncc34)CC2)nc1` [C-6] the IC50 (human NR1/NR2A) was > 10000 nM and the IC50 (human NR1/NR2B) was 34 nM.

In the case of `FCc1ccc(C(F)(F)CN2CCC(Nc3ncnc4[nH]ncc34)CC2)nc1` [C-7], the IC50 (human NR1/NR2A) is reported as > 10000 nM and the IC50 (human NR1/NR2B) is reported as 43 nM.

`FC(F)Oc1ccc(C(F)(F)CN2CCC(Nc3ncnc4[nH]ncc34)CC2)nc1` [C-12] was tested, and the IC50 (human NR1/NR2A) was > 10000 nM and the IC50 (human NR1/NR2B) was 23 nM.

In the case of `Fc1cnc(C(F)(F)CN2CCC(Nc3ncnc4[nH]ncc34)CC2)c(F)c1` [C-15, N-(1-(2-(3,5-difluoropyridin-2-yl)-2,2-difluoroethyl)piperidin-4-yl)-1H-pyrazolo[3,4-d]-pyrimidin-4-amine], the IC50 (human NR1/NR2A) is reported as > 10000 nM and the IC50 (human NR1/NR2B) is reported as 93 nM.

`Fc1cc(Cl)cnc1C(F)(F)CN1CCC(Nc2ncnc3[nH]ncc23)CC1` [C-16, N-(1-(2-(5-chloro-3-fluoropyridin-2-yl)-2,2-difluoroethyl)piperidin-4-yl)-1H-pyrazolo[3,4-d]pyrimidin-4-amine] was tested, and the IC50 (hERG channel) was 13000 nM, the IC50 (CYP2D6) was 10000 nM and the IC50 (human NR1/NR2A) was > 10000 nM. The IC50 (human NR1/NR2B) was 30 nM.

With `Cc1cnc(C(F)(F)CN2CCC(Nc3ncnc4[nH]ncc34)CC2)c(F)c1` [C-17, N-(1-(2,2-difluoro-2-(3-fluoro-5-methylpyridin-2-yl)ethyl)piperidin-4-yl)-1H-pyrazolo[3,4-d]pyrimidin-4-amine] the IC50 (human NR1/NR2A) was > 10000 nM and the IC50 (human NR1/NR2B) was 48 nM.

In the case of `Fc1cc(C(F)(F)F)cnc1C(F)(F)CN1CCC(Nc2ncnc3[nH]ncc23)CC1` [C-18, N-(1-(2,2-difluoro-2-(3-fluoro-5-(trifluoromethyl)pyridin-2-yl)-ethyl)piperidin-4-yl)-1H-pyrazolo[3,4-d]pyrimidin-4-amine], the immobility time (Male mice (strain NLMN); 10 mg/kg, 20 minutes after IP dosing, vehicle group 175±14, p<0.01) is reported as 97 ± 16 s, the IC50 (human NR1/NR2A) is reported as > 10000 nM and the IC50 (human NR1/NR2B) is reported as 59 nM.

`FC(F)(CN1CCC(Nc2ncnc3[nH]ncc23)CC1)c1ncc(Cl)cc1Cl` [C-24, N-(1-(2-(3,5-dichloropyridin-2-yl)-2,2-difluoroethyl)piperidin-4-yl)-1H-pyrazolo[3,4-d]pyrimidin-4-amine] was tested, and the IC50 (human NR1/NR2A) was > 10000 nM and the IC50 (human NR1/NR2B) was 52 nM.

`Cc1n[nH]c2ncnc(NC3CCN(CC(F)(F)c4ccc(C(F)(F)F)cn4)CC3)c12` [C-33, N-(1-(2,2-difluoro-2-(5-(trifluoromethyl)pyridin-2-yl)ethyl)piperidin-4-yl)-3-methyl-1H-pyrazolo[3,4-d]pyrimidin-4-amine] was tested, and the IC50 (hERG channel) was > 30000 nM, the IC50 (human NR1/NR2A) was > 10000 nM and the IC50 (human NR1/NR2B) was 110 nM and 89 nM.

Work on `FC(F)(F)c1ccc(C(F)(F)CN2CCC(Nc3ncnc4[nH]ncc34)CC2)cn1` [C-127, N-(1-(2,2-difluoro-2-(6-(trifluoromethyl)pyridin-3-yl)ethyl)piperidin-4-yl)-1H-pyrazolo[3,4-d]pyrimidin-4-amine] yielded an IC50 (hERG channel) of 23000 nM and an IC50 (human NR1/NR2B) of 38 nM.

For `CN(C)CCCN1c2ccccc2CCc2ccccc21` [imipramine, reference compound], the antidepressant activity (Male mice (strain NLMN); positive control, 32 mg/kg, IP) was “showed the expected antidepressant activity”.
